# Assay results as given in ChEMBL document CHEMBL1201862, “PubChem BioAssay data set” (2004).
#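 How tested: cells in 96-well plates exposed to compound for 48 hours at five concentrations. The concentration for 50% growth inhibition is given as GI50.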 Activity calls are given as the source filed them. No stated cut-off is given here; in the data, active = GI50 up to about 1.1 µM and inactive = higher.
# How the values were obtained:
# Test in all cases: inhibition of tumour cell growth, NCI panel, 48 h
# DLD-1 = system: DLD-1
# DMS-114 = system: DMS-114
# DMS-273 = system: DMS-273
# KM-20L2 = system: KM-20L2
# LXFL 529 = system: LXFL 529
# M19-MEL = system: M19-MEL
# SNB-78 = system: SNB-78
# HOP-18 = system: HOP-18
# RXF 631 = system: RXF 631
Structure (SMILES),GI50 (DLD-1),GI50 (DMS-114),GI50 (DMS-273),GI50 (KM-20L2),GI50 (LXFL 529),GI50 (M19-MEL),GI50 (SNB-78),GI50 (HOP-18),GI50 (RXF 631)
CCCCCN(CCCCC)C(=O)[C@@H](CCC(=O)O)NC(=O)c1cc2ccccc2[nH]1,31.5 µM (inactive),33 µM (inactive),32.1 µM (inactive),40.5 µM (inactive),41.7 µM (inactive),22.3 µM (inactive),59.6 µM (inactive),,
CCCCC(C)C(OC(=O)CC(CC(=O)O)C(=O)O)C(CC(C)CC(O)CCCCC(O)CC(O)C(C)N)OC(=O)CC(CC(=O)O)C(=O)O (stereo not given),> 100 µM (inactive),,,> 100 µM (inactive),> 100 µM (inactive),> 100 µM (inactive),,> 100 µM (inactive),> 100 µM (inactive)
C=CCNc1nc2c(s1)C(=O)c1ccccc1C2=O,,1.77 µM (inactive),9.82 µM (inactive),19.1 µM (inactive),11.4 µM (inactive),1.76 µM (inactive),24.4 µM (inactive),11 µM (inactive),
O=C1CNC(=O)c2[nH]cnc2N1,> 100 µM (inactive),> 100 µM (inactive),> 100 µM (inactive),,> 100 µM (inactive),> 100 µM (inactive),> 100 µM (inactive),> 100 µM (inactive),39.9 µM (inactive)
O=C(CC1(O)C(=O)Nc2c(Cl)ccc(Cl)c21)c1ccc2ccccc2c1 (stereo not given),17.9 µM (inactive),5.78 µM (inactive),5.58 µM (inactive),7.08 µM (inactive),10.2 µM (inactive),2.65 µM (inactive),14.5 µM (inactive),12.9 µM (inactive),
COc1cc(CCC(=O)NS(=O)(=O)c2ccccc2)cc(OC)c1OC,> 100 µM (inactive),> 100 µM (inactive),> 100 µM (inactive),> 100 µM (inactive),> 100 µM (inactive),,> 100 µM (inactive),72.6 µM (inactive),
CSCCC(C(=O)O)N(CC1(O)OCC(O)C(O)C1O)N=O (stereo not given),> 100 µM (inactive),> 100 µM (inactive),> 100 µM (inactive),> 100 µM (inactive),> 100 µM (inactive),> 100 µM (inactive),> 100 µM (inactive),,> 100 µM (inactive)
CS(=O)(=O)OCCN1CCN(C(=O)c2cccc3c(Nc4ccc(S(=O)(=O)N=C(N)N)cc4)c4ccccc4nc23)CC1,> 100 µM (inactive),> 100 µM (inactive),> 100 µM (inactive),> 100 µM (inactive),,> 100 µM (inactive),> 100 µM (inactive),,
CCOC(=O)C(Oc1ccc(OC)c2c1C(=O)CCC2)c1ccccc1 (stereo not given),> 100 µM (inactive),84.7 µM (inactive),98.9 µM (inactive),> 100 µM (inactive),> 100 µM (inactive),> 100 µM (inactive),74 µM (inactive),,
CN1C(c2ccccc2)CS(=O)(=O)CS1(=O)=O (stereo not given),> 100 µM (inactive),> 100 µM (inactive),> 100 µM (inactive),> 100 µM (inactive),> 100 µM (inactive),> 100 µM (inactive),> 100 µM (inactive),> 100 µM (inactive),> 100 µM (inactive)
N#CCC(=O)NC1C2CC3CC(C2)CC1C3 (stereo not given),20.2 µM (inactive),16 µM (inactive),21.6 µM (inactive),18.2 µM (inactive),28.1 µM (inactive),24.5 µM (inactive),20.5 µM (inactive),,
CCN(CC)CCCNc1nccc2c(C)c3c(cc12)c1cnccc1n3C,0.0244 µM (active),0.0501 µM (active),0.0353 µM (active),0.0682 µM (active),,0.48 µM (active),0.807 µM (active),< 0.01 µM (active),
C/C(CC(=O)Nc1cccc([N+](=O)[O-])c1)=N/NC(N)=S,> 100 µM (inactive),> 100 µM (inactive),,> 100 µM (inactive),> 100 µM (inactive),> 100 µM (inactive),,,
Nc1c(-c2ccc(-c3c(N)[n+]([O-])c4ccccc4[n+]3[O-])cc2)[n+]([O-])c2ccccc2[n+]1[O-],11.8 µM (inactive),3.4 µM (inactive),14.2 µM (inactive),> 10 µM (inactive),7.87 µM (inactive),11.3 µM (inactive),8.39 µM (inactive),7.67 µM (inactive),
O=c1ncccn1[C@@H]1O[C@H](CO)[C@H](O)C1O (stereo not given in full),> 100 µM (inactive),> 100 µM (inactive),> 77.1 µM (inactive),> 78 µM (inactive),> 100 µM (inactive),> 100 µM (inactive),> 99.5 µM (inactive),> 100 µM (inactive),
CCc1ccccc1N1CCN(C(=O)c2cc(OC)c(OC)c(OC)c2)CC1,0.2 µM (active),0.0561 µM (active),0.0277 µM (active),0.0813 µM (active),,0.0647 µM (active),0.262 µM (active),,

Structure (SMILES),GI50 (DLD-1),GI50 (DMS-114),GI50 (DMS-273),GI50 (KM-20L2),GI50 (LXFL 529),GI50 (M19-MEL),GI50 (SNB-78),GI50 (HOP-18),GI50 (RXF 631)
COC(=O)C1=C(C(=O)OC)N(C(C)C)[C@H]2C(C(=O)OC)=C(C(=O)OC)N(C(C)C)[C@@H]12,> 100 µM (inactive),> 100 µM (inactive),> 100 µM (inactive),> 100 µM (inactive),> 100 µM (inactive),> 100 µM (inactive),> 100 µM (inactive),> 100 µM (inactive),> 100 µM (inactive)
N#Cc1c(CC(=O)O)cc(=O)n2c1[nH]c1ccccc12,> 100 µM (inactive),> 100 µM (inactive),> 100 µM (inactive),> 100 µM (inactive),,> 100 µM (inactive),> 100 µM (inactive),,
Cc1ccc(S(=O)(=O)N/N=C(\c2nc3ccc([N+](=O)[O-])cc3[nH]c2=O)C(O)c2ccc([N+](=O)[O-])cc2)cc1 (stereo not given),57.1 µM (inactive),32 µM (inactive),54 µM (inactive),46.2 µM (inactive),46 µM (inactive),> 100 µM (inactive),> 100 µM (inactive),,
COC1=CC(=O)c2ccc(C(C)C)cc2C1(C)C1=NC(C)(C)CO1 (stereo not given),> 100 µM (inactive),> 100 µM (inactive),> 100 µM (inactive),> 100 µM (inactive),> 100 µM (inactive),> 100 µM (inactive),,> 100 µM (inactive),
CC(=O)NC(CCCCNC(=O)N(C)N=O)C(=O)NCc1ccccc1 (stereo not given),> 100 µM (inactive),> 100 µM (inactive),> 100 µM (inactive),> 100 µM (inactive),> 100 µM (inactive),> 100 µM (inactive),> 100 µM (inactive),,> 100 µM (inactive)
CN1C(=O)CC(c2cccc(C3CC(=O)N(C)C3=O)n2)C1=O (stereo not given),> 100 µM (inactive),> 100 µM (inactive),> 100 µM (inactive),> 100 µM (inactive),> 100 µM (inactive),> 100 µM (inactive),> 100 µM (inactive),> 100 µM (inactive),
[O-][Cl+3]([O-])([O-])[O-].c1ccc(-c2csc3c4ccccc4c4ccccc4[n+]23)cc1,5.58 µM (inactive),0.394 µM (active),1.6 µM (inactive),5.53 µM (inactive),1.84 µM (inactive),1.61 µM (inactive),2.08 µM (inactive),14.3 µM (inactive),
COC(=O)C(Cc1nc2ccc(Cl)cc2nc1O)C(=O)C(=O)Nc1cc(C)ccc1C (stereo not given),> 100 µM (inactive),> 100 µM (inactive),> 100 µM (inactive),> 100 µM (inactive),> 100 µM (inactive),> 100 µM (inactive),> 100 µM (inactive),> 100 µM (inactive),> 100 µM (inactive)
CC(=O)NNc1nc(C)c(C(/C=C/c2ccc(/C=C/C(=N\NC(=O)c3ccncc3)c3sc(NNC(C)=O)nc3C)cc2)=N/NC(=O)c2ccncc2)s1,> 100 µM (inactive),> 100 µM (inactive),,> 100 µM (inactive),> 100 µM (inactive),> 100 µM (inactive),> 100 µM (inactive),,
CC(=O)Nc1[nH]c(=O)[nH]c(=O)c1N(C(C)=O)C(C)=O,> 100 µM (inactive),> 100 µM (inactive),> 100 µM (inactive),> 100 µM (inactive),> 100 µM (inactive),> 100 µM (inactive),> 100 µM (inactive),,
O=C1c2ccccc2C(=O)c2cc3c(cc21)C[S+]([O-])C3,> 100 µM (inactive),> 100 µM (inactive),> 100 µM (inactive),> 100 µM (inactive),> 100 µM (inactive),> 100 µM (inactive),,> 100 µM (inactive),
Clc1cc(Cl)cc(Nc2nc3ccccc3nc2-c2cccs2)c1,41.4 µM (inactive),,14.2 µM (inactive),> 10 µM (inactive),35.8 µM (inactive),24.2 µM (inactive),62.5 µM (inactive),28.5 µM (inactive),15.8 µM (inactive)
C=CCC1=C2CCCCC2CCC1=O (stereo not given),> 100 µM (inactive),> 100 µM (inactive),> 100 µM (inactive),,> 100 µM (inactive),> 100 µM (inactive),> 100 µM (inactive),,> 100 µM (inactive)
C=C(C)C1CC=C(C)C(O)([C@@]2(O)C[C@H](C(=C)C)CC=C2C)C1 (stereo not given in full),30.3 µM (inactive),37.3 µM (inactive),16.2 µM (inactive),,26.6 µM (inactive),11.5 µM (inactive),30.6 µM (inactive),,
C=C(C)C1C/C=C(/C)CCCC2(CCC3=C(CC(C(=C)C)C/C=C(/C)CCC3)O2)C(=O)C1 (stereo not given),> 100 µM (inactive),> 100 µM (inactive),> 100 µM (inactive),> 100 µM (inactive),> 100 µM (inactive),> 100 µM (inactive),> 100 µM (inactive),> 100 µM (inactive),
